Consider 13 compounds from US4258199A, “Method for preparing cyclic ethers and thioethers including oxygen isomers and sulfur analogs of prostacyclin” (Research Corporation, priority 1978, dated 1981).

The nature of data set [1]: half-life in saline / stability in solution (Table 1). It counts as physicochemical. Conditions: 250° C. (so in the source); for half-life: read-out: t 1/2 saline. From the text: The removal of the protecting groups R^1, R^2 and R^3 from the resulting products of the oxidation, i.e, the allylic oxygen cyclic ethers or sulfones or the vinylic sulfoxides, or sulfones, can be carried out with acid or base or sequentially with both, if necessary, and yields prostacyclin isomers and analogs. A particularly useful prostacyclin sulfur analog, 6,9α-thiaprostacyclin ester can be obtained by reducing a 6,9α-sulfoxaprostacyclin ester--obtained as described supra--with a reducing agent such as trimethylsilyliodide.

Data set [2] concerns human and rabbit citrated platelet-rich plasma. The data set can be described thus: platelet aggregation, citrated platelet-rich plasma in a chronolog aggregometer (agonistic and antagonistic activity vs ADP). It counts as cell-based. Conditions: 20 mM and 2 μM (so in the source), inhibition of aggregation by 2 μM ADP, or antagonism of 5 mM prostacyclin. How it is done:
Effects of prostacyclin analogs on platelet aggregation was evaluated using human and rabbit citrated platelet-rich plasma in a chronolog aggregometer at […]. Each of the analogs was tested at two concentrations (20 mM and 2 μM) for agonistic activity (inhibition of aggregation induced by 2 μM ADP) and antagonistic activity (prevention of the inhibition of ADP-induced aggregation by 5 mM prostacyclin).

The test system of data set [3] is cat coronary artery. The data set can be described thus: isolated perfused cat coronary artery, perfusion pressure. Conditions: isolated perfused cat right coronary artery, 37° C., change in perfusion pressure. The protocol:
Effects of prostacyclin analogs on isolated perfused cat coronary arteries were measured as follows.
Cats of either sex (2.5-3.5 kg) were anesthetized with sodium pentobarbital (30 mg/kg) given intravenously. Hearts were rapidly excised and placed in oxygenated (95% O2 +5% CO2) ice-cold Krebs-Henseleit (K-H) solution of the following millimolar composition: NaCl, 118; KCl, 4.75; CaCl2.H2 O, 2.54; KH2 PO4, 1.19; MgSO4.7H2 O, 1.19; NaHCO3, 12.5; glucose, 10.00. A 20-gauge stainless steel cannula was inserted into the right coronary artery via the coronary ostium. Distal to the cannula, approximately 1 cm of coronary artery was dissected free of surrounding tissue. The section of right coronary artery with the cannula in place was excised from the heart and immediately transferred to a constant flow perfusion apparatus.
The perfusion apparatus consists of a reservoir containing 20 ml of warm (37° C.) oxygenated (95% O2 +5% CO2) K-H solution which bathes the coronary artery and serves as recirculating perfusate. An increase in perfusion pressure indicates vasoconstriction, whereas a decrease in perfusion pressure signifies vasodilation. Following an initial 1 hr. equilibrium period, vascular responsiveness was established by adding 25 mM KCl. After washing with fresh K-H solution for 20-30 mins., the preparation achieved a relatively constant low basal tone. Basal perfusion pressure averaged 50±2.5 mm Hg. Fresh K-H dilutions of stock prostacyclin analog concentrations were added to the perfusate reservoir in 0.1-0.2 ml volumes. Changes in perfusion pressure in response to prostacyclin analog addition generally plateaus within 5 mins. of administration.

Data set [4] can be described thus: solubility (analytical data of methyl ester). The data set is classed as physicochemical.
Data set [5] in a line: stability of the sodium salt in solution (preparative examples). It counts as physicochemical. Conditions: sodium salt after hydrolysis with NaOH in 90% ethanol. The protocol: Acidification of this compound in aqueous solutions leads to the corresponding acid which can be extracted with ether and purified chromatographically.
The critical intermediate for this synthesis is 11,15-diol, 5-phenylseleno,6,9α-thiaprostacyclin methyl ester IV (R^1 =--CH3, R^2 =R^3 =H, Z=--S--). The preparation of this intermediate is described in Example 10a. When this intermediate was oxidized with 3.3 equivalents of m-chloroperbenzoic acid in methylene chloride -78°→20° C. for 24 hours, the 6,9α-sulfoprostacyclin methyl ester IX was produced in 85% yield (IX, R^1 =--CH3, R^2 =R^3 =H, n=2). It was isolated by prep layer chromatography and hydrolyzed with NaOH in 90% ethanol at 25° C. to afford the corresponding sodium salt IX.

The conditions of data set [6]: background statement; cited from earlier work.

Counter-ions that a name gives are not always drawn.

Turning to `CCCCC[C@H](O)/C=C/[C@@H]1[C@H]2C/C(=C/CCCC(=O)O)S(=O)(=O)[C@H]2C[C@H]1O` [6,9-sulfo-5(Z)prostacyclin], in data set [1], the half-life is > 24 h. In data set [2], the “Biological Activity: Platelet Aggregation” value is on record as “Antagonist(M)”. Moreover, the “Biological Activity: Cat Coronary Artery” value in data set [3] is recorded as “Constrictor(M)”.

As for `CCCCC[C@H](O)/C=C/[C@@H]1[C@H]2CC(/C=C/CCC(=O)OC)S(=O)(=O)[C@H]2C[C@H]1O` (stereo partly shown) [6,9-sulfo-4(E) is oprostacyclin methyl ester], the solubility result in data set [4] is “CH2 Cl2 and common organic solvents”.

Regarding `CCCCC[C@H](O)/C=C/[C@@H]1[C@H]2C/C(=C/CCCC(=O)OC)S(=O)(=O)[C@H]2C[C@H]1O` [6,9α-sulfoprostacyclin methyl ester], in data set [4], the solubility entry was “common organic solvents”.

For the compound 6,9-sulfo-4(E)isoprostacyclin, 6αisomer, the “t 1/2 saline” value in data set [1] is > 24 h. The “Biological Activity: Platelet Aggregation” value in data set [2] was “Inhibitor”. For the same compound, the “Biological Activity: Cat Coronary Artery” value in data set [3] was “Constrictor(M)”.

In the case of `CCCCCC(O)/C=C/C1C(O)CC2OC(/C=C/CCC(=O)O)CC21` (stereo not drawn) [4(E)-9-deoxy-6,9α-epoxy-Δ^4 -isoprostacyclin(6α)], the “t 1/2 saline” value in data set [1] is > 3 h. Moreover, the “Biological Activity: Platelet Aggregation” value in data set [2] is “Antagonist”. The “Biological Activity: Cat Coronary Artery” value in data set [3] is reported as “Constrictor”.

Take `CCCCC[C@H](O)/C=C/[C@@H]1[C@H]2C/C(=C/CCCC(=O)O)[S+]([O-])[C@H]2C[C@H]1O` (stereo partly shown) [6,9-sulfoxa-5(Z)prostacyclin]: the half-life in data set [1] is > 24 h. The “Biological Activity: Platelet Aggregation” value in data set [2] was “Little activity”. Besides, the “Biological Activity: Cat Coronary Artery” value in data set [3] is given as “Little activity”.

Consider 6,9-sulfo-4(E)isoprostacyclin, 6βisomer, for which, in data set [1], the “t 1/2 saline” value is > 24 h. In addition, the “Biological Activity: Platelet Aggregation” value in data set [2] was “Antagonist”. Further, the “Biological Activity: Cat Coronary Artery” value in data set [3] was “Constrictor”.

Consider `CCCCCC(O)/C=C/C1C(O)CC2OC(/C=C/CCC(=O)O)CC21` (stereo not drawn) [4(E)-9-deoxy-6,9α-epoxy-Δ^4 -isoprostacyclin(6β)], for which the “t 1/2 saline” value in data set [1] was > 3 h. In addition, the “Biological Activity: Platelet Aggregation” value in data set [2] is “Inhibitor(P)”. The “Biological Activity: Cat Coronary Artery” value in data set [3] is “Constrictor(P)”.

Consider `CCCCC[C@H](O)/C=C/[C@@H]1[C@H]2C/C(=C\CCCC(=O)O)[S+]([O-])[C@H]2C[C@H]1O` (stereo partly shown) [6,9-sulfoxa-5(E)prostacyclin], for which the half-life in data set [1] was > 24 h. Moreover, the “Biological Activity: Platelet Aggregation” value in data set [2] was “Little activity”. For the same compound, the “Biological Activity: Cat Coronary Artery” value in data set [3] was “Little activity”.

As for `CCCCC[C@H](O)/C=C/[C@@H]1[C@H]2C/C(=C/CCCC(=O)O)[S+]([O-])[C@H]2C[C@H]1O` (stereo partly drawn) [5(Z)-6,9α-sulfoxaprostacyclin sodium salt], in data set [5], the “stability of sodium salt in solution” value was “stable solution”.

For `CCCCC[C@H](O)/C=C/[C@@H]1[C@H]2C/C(=C/CCCC(=O)O)O[C@H]2C[C@H]1O` [Natural Prostacyclin, 6,9α-oxido-11α,15α-dihydroxyprosta-(Z)5, (E)13-dienoic acid, reference compound], in data set [2], the “Biological Activity: Platelet Aggregation” value is on record as “Inhibitor(P)”. Also, in data set [3], the “Biological Activity: Cat Coronary Artery” value is “Dilator(P)”. Further, in data set [6], the biological half-life is reported as 2 minutes.

`CCCCC[C@H](O)/C=C/[C@@H]1[C@H]2C/C(=C/CCCC(=O)O)S[C@H]2C[C@H]1O` [6,9α-Thia-5(Z)prostacyclin]: the half-life in data set [1] was > 3 h. Further, the “Biological Activity: Platelet Aggregation” value in data set [2] was “Very little activity, if any”. For the same compound, in data set [3], the “Biological Activity: Cat Coronary Artery” value was “Very little activity, if any”.

`CCCCC[C@H](O)/C=C/[C@@H]1[C@H]2C/C(=C/CCCC(=O)O)S(=O)(=O)[C@H]2C[C@H]1O` [5(Z)-6,9α-sulfoprostacyclin sodium salt]: the “stability of sodium salt in solution” value in data set [5] was “quantitatively stable in aqueous solution”.
